Laboratory results from patent publication US10669266B2, “Oxadiazole inhibitors of HIPK2 for treating kidney fibrosis” (ICAHN SCHOOL OF MEDICINE AT MOUNT SINAI, priority 2017, dated 2020).

How the values were obtained:
HIPK2-Smad3 interaction = target: T1, HIPK2-Smad3 interaction (Homo sapiens, UniProt Q9H2X6); assay: His6-HIPK2 cobalt resin pull-down of endogenous Smad3 in 293T cells; format: cell-based; settings: 293T cells overexpressing His6-HIPK2, two different doses
T1 construct: host or cells: HEK 293T
T1 sequence (Q9H2X6 whole entry): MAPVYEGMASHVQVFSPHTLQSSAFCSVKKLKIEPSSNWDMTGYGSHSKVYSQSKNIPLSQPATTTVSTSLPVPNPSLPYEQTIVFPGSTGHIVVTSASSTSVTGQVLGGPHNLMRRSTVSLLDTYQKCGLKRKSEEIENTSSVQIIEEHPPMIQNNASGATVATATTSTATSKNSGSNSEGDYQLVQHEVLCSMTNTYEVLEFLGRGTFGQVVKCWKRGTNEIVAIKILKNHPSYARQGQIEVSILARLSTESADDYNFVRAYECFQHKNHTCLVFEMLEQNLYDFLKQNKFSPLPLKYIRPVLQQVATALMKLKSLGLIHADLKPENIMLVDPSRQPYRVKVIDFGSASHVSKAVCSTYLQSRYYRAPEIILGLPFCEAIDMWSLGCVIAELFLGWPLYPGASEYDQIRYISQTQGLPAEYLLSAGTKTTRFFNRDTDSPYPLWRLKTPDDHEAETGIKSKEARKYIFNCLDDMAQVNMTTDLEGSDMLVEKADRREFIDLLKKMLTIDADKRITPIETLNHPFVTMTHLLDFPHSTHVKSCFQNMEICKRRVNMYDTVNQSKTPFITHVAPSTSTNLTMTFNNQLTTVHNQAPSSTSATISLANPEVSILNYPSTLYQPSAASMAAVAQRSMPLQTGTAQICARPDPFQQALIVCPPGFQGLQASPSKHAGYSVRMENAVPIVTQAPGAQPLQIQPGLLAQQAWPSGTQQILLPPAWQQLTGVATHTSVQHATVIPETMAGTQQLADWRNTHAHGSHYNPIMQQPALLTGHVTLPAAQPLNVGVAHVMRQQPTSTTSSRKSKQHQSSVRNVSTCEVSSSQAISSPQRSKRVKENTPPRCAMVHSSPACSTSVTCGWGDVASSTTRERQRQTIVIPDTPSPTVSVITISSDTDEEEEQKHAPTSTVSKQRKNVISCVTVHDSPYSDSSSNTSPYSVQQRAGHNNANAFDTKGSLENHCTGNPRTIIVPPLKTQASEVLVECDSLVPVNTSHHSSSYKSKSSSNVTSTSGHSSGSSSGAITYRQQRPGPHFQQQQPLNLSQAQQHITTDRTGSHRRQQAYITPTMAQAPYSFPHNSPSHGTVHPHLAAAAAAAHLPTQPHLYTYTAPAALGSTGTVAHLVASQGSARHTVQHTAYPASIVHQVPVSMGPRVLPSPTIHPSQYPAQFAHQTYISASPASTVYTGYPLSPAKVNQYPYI
Protocol: 4×Smad binding element-driven firefly luciferase (SBE4-Luc) plasmid was purchased from Addgene (#16495). Renilla luciferase reporter plasmid (pRL) was purchased from Promega. Active domain deleted HIPK2 was previously described by Jin et al. [Nat Med, 18: 580-588]. The His6-HIPK2 construct was generated by PCR amplification of coding region using plasmid containing human HIPK2 gene (GeneCopoeia™) as the template.
293T cells were lysed in equilibration/wash buffer (50 mM sodium phosphate, 300 mM sodium chloride, 10 mM imidazole; pH 7.4) 48 hours after transfection of His6-tagged HIPK2 expression plasmid. Cleared cell lysate was incubated with HisPur Cobalt resin (Thermo Fisher Scientific, NY) on end-over-end rotator at 4° C. for 2 hours. After centrifugation (700×g, 2 min, 4° C.), the resin was washed 3 times in a wash buffer. The bound protein complexes were finally eluted with elution buffer (50 mM sodium phosphate, 500 mM sodium chloride, 150 mM imidazole; pH 7.4) and subjected to western blot analysis.
Cells were lysed in M-PER mammalian protein extraction reagent (#78501, Thermo Fisher Scientific, NY) containing protease inhibitor cocktail (#11836153001, Roche) and phosphatase inhibitors (50 mM NaF, 10 mM β-glycerophosphate, 5 mM sodium pyrophosphate, 2 mM Na3VO4). Total protein concentration was measured using the Bradford reagent (#500-0006, Bio-Rad). […]

[1] = system: TGF-β1/Smad3 downstream target genes (Col I, CTGF, FN1, MMP2, PAI1, α-SMA); assay: Real-time PCR of TGF-β1/Smad3 downstream target genes in hRTECs; format: cell-based, human
Protocol: HEK 293T (293T) cells (ATCC) were cultured in Dulbecco's Modified Eagle's medium (Invitrogen) containing 10% fetal bovine serum (FBS), 0.5% penicillin and streptomycin at 37° C. and 5% CO2 humidified environment. Human primary tubular cells (PromoCell GmbH, Heidelberg, Germany) were cultured in Renal Epithelial Cell Growth Medium-2 (Promocell GmbH) with supplements according to manufacturer's protocol human primary renal tubular epithelial cells with <5 passages were used for all studies. For HIV infection of hRTECs, pNL4-3:ΔG/P-EGFP, a gag/poi-deleted HIV-1 construct that contains EGFP in the gag open reading frame, and pHR-IRES-EGFP, a control EGFP construct, were used to generate the VSV-G pseudotyped virus. Cells were infected with HIV pseudotyped virus or control virus for 2 days before the treatment with test compound.
Total RNA was extracted using Trizol (Invitrogen). 400 ng of total RNA was reverse transcribed to cDNA using SuperScript III first strand synthesis system (Invitrogen).
Quantitative RT-PCR was performed using 7500 Real-Time PCR System (Applied Biosystems). Gene level was normalized to glyceraldehyde 3-phosphate dehydrogenase (GAPDH) and expressed as fold change. The primer sets used were as follows:
The effects of compounds of the invention on Smad3 phosphorylation and the expression of the downstream target genes of TGF-β/Smad3 pathway was also examined. […]

HIPK2 [2] = target: T2, HIPK2 (Homo sapiens, UniProt Q9H2X6); assay: Drug affinity responsive target stability (DARTS) with pronase in 293T lysates; format: binding; set-up: endogenous in cells; host or cells: HEK 293T cell lysate; settings: 1:10,000 pronase/cell lysate ratio
T2 sequence (Q9H2X6 whole entry): as above
Protocol: Drug affinity responsive target stability (DARTS) method was used to identify protein targets of test compound as described previously by Pai et al. [Methods Mol Biol, 1263: 287-298, 2015]. Briefly, 293T lysates were incubated with test compound at room temperature for 1 hour. After incubation, cell lysates were subjected to proteolysis with various concentrations of pronase (#10165921001, Roche) at room temperature for 20 minutes. Proteolysis was stopped by addition of 5× protein loading buffer and heating at 90° C. for 5 minutes. Protein samples were subjected to western blot analysis.
Drug affinity responsive target stability (DARTS) has recently been developed to identify potential protein targets of small molecules. It is based on the principle that the binding of small molecule compound to the target protein changes the protein structure such that it can increase its stability and confer protection against proteolysis. In order to test whether compounds of the invention bind directly to HIPK2, we performed the DARTS experiments using pronase in presence of Example 1. […] Because HIPK2 abundance is quite low in many known cell types, we overexpressed His6-tagged HIPK2 in 293T cells for testing its interaction with the endogenous Smad3. The expression of His6-HIPK2 and Smad3 in 293T cells was confirmed by western blot. We pulled down His6-HIPK2 using cobalt beads and checked for the presence of Smad3 in cells treated with two different doses of Example 1.

HIPK2 [3] = target: T2, HIPK2; assay: HIPK2 kinase assay (ProQinase GmbH); format: biochemical; set-up: purchased ProQinase GmbH (Freiburg, Germany), assay service; settings: increasing concentrations
Protocol: HIPK2 kinase assay was performed by ProQinase GmbH (Freiburg, Germany).
Kinase assay was performed by ProQinase GmbH (Freiburg, Germany).

With `COc1ccc2cc(-c3nc(-c4ccc(Br)cc4)no3)cnc2c1` [Example 1, 3-(4-Bromophenyl)-5-(7-methoxyquinolin-3-yl)-1,2,4-oxadiazole] the “interaction between Smad3 and HIPK2 (His6-HIPK2 pull-down)” value (HIPK2-Smad3 interaction) was “reduced the interaction between Smad3 and HIPK2 in a dose-dependent manner”, the “expression of Col I, CTGF, FN1, MMP2, PAI1 and α-SMA (real-time PCR)” value ([1]; absence of TGF-β1 stimulation) was “did not affect expression” and the “expression of Col I, CTGF, FN1, MMP2, PAI1 and α-SMA (real-time PCR)” value ([1]; treated with TGF-β1, increasing concentrations) was “progressively inhibited”. For the same compound, the “protection of HIPK2 from pronase digestion (DARTS)” value (HIPK2 [2]; 30 μm) was “partial protection”, the “protection of HIPK2 from pronase digestion (DARTS)” value (HIPK2 [2]; 100 μm) was “complete protection” and the “protection of HIPK2 from pronase degradation (DARTS)” value (HIPK2 [2]; versus DMSO control) was “protected from degradation”. For the same compound, the “inhibition of HIPK2 kinase activity” value (HIPK2 [3]) was “No inhibition”.
